Experimental findings from patent publication US9889115B2, “Fitness assay and associated methods” (priority 1998, dated 2018) are described below.

One assay deals with wild-type HIV. Description: wild-type antiretroviral activity (Table 4). Particulars: Human immunodeficiency virus 1, read-out: ID50.
Assay [1] relates to HIV-1LAI. Description: PHA-PBMC assay, p24 Gag protein production. The format is cell-based. The settings on record: HIV-1LAI; PBMC/p24, day 7 (Table 8).
Assay [2] concerns the target HIV-1 protease V82F/I84V. Description: continuous fluorogenic HIV protease assay. The assay is classed as biochemical. The settings on record: for KI-wt/KI-mut: V82F/I84V (Table 7); for Fitness: V82F/I84V relative to WT (Table 7). How it is done:
(§1) This example describes the protocol for the sensitive continuous fluorogenic assay for HIV protease of the present invention and its application. […] The inhibition constant for wild-type HIV-1, Kimnt/Kiwt ratio, and vitality were measured.
(§2) The reaction was initiated by the addition of 5 μl of substrate stock solution in water. […] The initial rate of hydrolysis was calculated by second degree polynomial fit using SLM AB2 2.0 operating software.
(§3) For inhibition studies, inhibitors were prepared as stock solutions at different concentrations in dimethylsulfoxide. […] The reaction was initiated by the addition of 5 μl of substrate stock solution in water. For data analysis, the mathematical model for tight-binding inhibitors was used.

The target in assay [3] is T1, wild-type HIV-1 (WT) protease (Human immunodeficiency virus type 1 group M subtype B, UniProt P04585).
T1 construct: the proteases of wild-type HIV-1 (WT)
Nature of the assay: continuous fluorogenic HIV protease assay. The format is biochemical. The settings on record: WT (Table 7). How it is done:
as §1, §2, §3

The target in assay [4] is T2, HIV-1 protease V82F/I84V (Human immunodeficiency virus type 1 group M subtype B, UniProt P04585, I572V/V570F).
T2 construct: the proteases of wild-type HIV-1 (WT) and various mutant enzymes
Description: continuous fluorogenic HIV protease assay. The format is biochemical. Particulars: V82F/I84V (Table 7). As to the method:
as §1, §2, §3

Assay [5] has as its system HIV-1LAI. Nature of the assay: MT-2 cells, MTT assay. The format is cell-based. The settings on record: HIV-1LAI; MT-2/MTT, day 7. As to the method: All drug sensitivities were performed in triplicate. […] The IC50's were determined using the MTT assay on day 7 of culture. All sensitivities were determined in […].
The next assay concerns HIV-1BAL. Nature of the assay: PHA-PBMC assay, p24 Gag protein production. The format is cell-based. The settings on record: HIV-1Ba-L; PBMC/p24, day 7 (Table 8).
Another assay has as its target T3, HIV-1 protease G48V/V82A (Human immunodeficiency virus type 1 group M subtype B, UniProt P04585, G536V/V570A).
T3 construct: proteases containing the deleterious drug resistance associated mutations V82F/I84V and G48V/V82A
Nature of the assay: continuous fluorogenic HIV protease assay. The assay is classed as biochemical. Particulars: for KI-wt/KI-mut / Ki: G48V/V82A; for Fitness: G48V/V82A relative to WT. How it is done: This example describes the protocol for the sensitive continuous fluorogenic assay for HIV protease of the present invention and its application. […] 21702-1201, upon written request. The inhibition constant for wild-type HIV-1, Kimnt/Kiwt ratio, and vitality were measured. (See Gulnik et al., Biochemistry, 34, 9282-9287 (1995). Protease activity was measured using the fluorgenic substrate Lys-Ala-Arg-Val-Tyr-Phe(NO2)-Glu-Ala-Nle-NH2 (Bachem Bioscience, Inc.). (See Peranteau et al., D.H. (1995) Anal. Biochem.).
The reaction was initiated by the addition of 5 μl of substrate stock solution in water. Increase in fluorescence intensity at the emission maximum of 306 nm (excitation wavelength was 277 nm) was monitored as a function of time using Aminco Bowman-2 luminescence spectrometer (SLM Instruments, Inc.). The initial rate of hydrolysis was calculated by second degree polynomial fit using SLM AB2 2.0 operating software.
For inhibition studies, inhibitors were prepared as stock solutions at different concentrations in dimethylsulfoxide. […] The reaction was initiated by the addition of 5 μl of substrate stock solution in water. For data analysis, the mathematical model for tight-binding inhibitors was used. (See Williams and Morrison (1979), In: Methods of Enzymol. 63, (ed. D. L. Purich), 437-467, Academic Press, NY, London). […]
This example describes the inhibitory activity of compounds 35 (FIG. 5A), 36 (FIG. 5B), 37 (FIG. 5C) and 38 (FIG. 5D). In accordance with the technique disclosed in Example 13 above, the inhibitory activity of these compounds was tested against proteases of the wild-type HIV-1. Compound 36, 37 and 38 were also tested against proteases containing the deleterious drug resistance associated mutations V82F/I84V and G48V/V82A. Fitness was determined in accordance with Example 13.

For the compound `COc1ccc(S(=O)(=O)N(CC(C)C)CC(O)C(Cc2ccccc2)NC(=O)OC2COC3OCCC23)cc1` (centres unmarked), in the assay on wild-type HIV, the IC50 was 1.4 nM.

`CC(C)CN(C[C@@H](O)[C@H](Cc1ccccc1)NC(=O)O[C@H]1CO[C@H]2OCC[C@H]21)S(=O)(=O)c1cccc(O)c1` [Compound 36]: the IC50 with HIV-1LAI [1] worked out at 34 nM; in the assay on HIV-1LAI [5], 17 nM; in the assay on HIV-1BAL it was 38 nM. Besides, the KI-wt/KI-mut on HIV-1 protease V82F/I84V [2] is on record as over 4.9; at HIV-1 protease G48V/V82A, over 3.0. For the same compound, the Fitness in the assay with HIV-1 protease V82F/I84V [2] and on HIV-1 protease G48V/V82A was over 0.8 each time. The inhibition constant Ki in assay [3] is under 0.005 nM; on HIV-1 protease V82F/I84V [4] it was 0.0244 nM; on HIV-1 protease G48V/V82A, 0.0153 nM.

As for `CC(C)CN(C[C@@H](O)[C@H](Cc1ccccc1)NC(=O)O[C@H]1CO[C@H]2OCC[C@H]21)S(=O)(=O)c1ccc(CO)cc1` [Compound 37], the IC50 was 2.7 nM in the assay with HIV-1LAI [1], 5.3 nM with HIV-1LAI [5] and 3 nM in the assay with HIV-1BAL. The values for the KI-wt/KI-mut (on HIV-1 protease V82F/I84V [2]; in assay [3]; at HIV-1 protease G48V/V82A) were 2.1, 1 and 5.3, respectively. For the same compound, the Fitness with HIV-1 protease V82F/I84V [2] is on record as 0.3; on HIV-1 protease G48V/V82A, 1.4. In addition, the figures for the Ki (in assay [3]; on HIV-1 protease V82F/I84V [4]; at HIV-1 protease G48V/V82A) were 0.012 nM, 0.0257 nM and 0.064 nM, respectively.

Turning to `CC(C)CN(C[C@@H](O)[C@H](Cc1ccccc1)NC(=O)O[C@H]1CO[C@H]2OCC[C@H]21)S(=O)(=O)c1cccc(CO)c1` [Compound 38], the IC50 with HIV-1LAI [1] is 8 nM; in the assay on HIV-1LAI [5], 28 nM; with HIV-1BAL it was 9.3 nM. For the same compound, the values for the KI-wt/KI-mut at HIV-1 protease V82F/I84V [2] and at HIV-1 protease G48V/V82A were over 13 and over 6.8, respectively. Moreover, the Fitness is given as over 2.1 in the assay with HIV-1 protease V82F/I84V [2] and over 1.8 at HIV-1 protease G48V/V82A. The inhibition constant (Ki) in assay [3] was over 0.005 nM; at HIV-1 protease V82F/I84V [4] it was 0.0668 nM; at HIV-1 protease G48V/V82A, 0.034 nM.

As usually defined, the Ki is a measure of affinity in units of concentration, obtained from inhibition or displacement. The low end stands for a stronger hold on the target, the high end for a looser hold on the target.
